# Measured values published in patent US20150320705A1, “METHOD OF INHIBITING OR TREATING AMYOTROPHIC LATERAL SCLEROSIS WITH PHENOXYALKYLCARBOXYLIC ACIDS” (priority 2014, published 2015).
# How the values were obtained:
# SOD deficient flies = type: in vivo, Drosophila; details: flies with interfered SOD gene, MN-001 tested at 0.08 mM, 0.8 mM, 8 mM (DMSO), FIG. 3
# Description: Drosophila males will be collected and keep on fly food for 24 h. Then flies will be transferred to vials containing 3-mm paper filter disks saturated with 250 μl of 1% sucrose containing 2 mM paraquat or 1% sucrose, 2 mM paraquat and the tested compound. The vials will be stored at 25° C. in the dark, and flies are enumerated after 24 h.
# Three replicas for each concentration will be performed in the same day and three replicas of the assay will be performed in different days.
# The experiment includes the analysis of four compound concentrations (10, 100, 250 and 1000 μM) and will evaluate 360 flies for each concentration (8 replicates×3 days with 15 flies each one). Resistance to paraquat treatment will be indicative of positive activity of the compound tested. See, FIG. 2.
# MN-001 was tested at concentrations of 0.08 mM, 0.8 mM, 8 mM (DMSO).
# VAPB Drosophila mutants = test: Evaluation of anti-ALS activity on VAPB Drosophila mutants (viability); type: in vivo; details: VAPB mutant flies; for adult flies observed from seeded larvae: 3 replicates for riluzole and vitamin D (45 larvae seeded), 8 for MN-001 (120 larvae seeded)
Compound,survival (or survivorship) percentages after paraquat exposure (SOD deficient flies),adult flies observed from seeded larvae (VAPB Drosophila mutants),viability (VAPB Drosophila mutants; compared with DMSO)
CCCc1c(SCCCOc2ccc(C(C)=O)c(OCCCC(=O)O)c2CCC)ccc(C(C)=O)c1O [MN-001],increased this survival in a dose dependent manner,5 of 8 wells displayed adults but only 1 adult in each of them,increase viability in a statistically significant manner
Nc1nc2ccc(OC(F)(F)F)cc2s1 [riluzole],–,No adult flies were observed,–
vitamin D,–,1 adult was observed in one of the 3 replicates,–
vitamin E,increased this percentage,–,–
